What was measured:
[1] = molecular target: T1, HDAC6 (Homo sapiens, UniProt Q9UBN7); test: In vitro enzymatic assay HDAC6 (Fluor de Lys); assay type: biochemical
T1 construct: purchased Sigma Aldrich or Reaction Biology Corporation
T1 sequence (Q9UBN7 1-1215): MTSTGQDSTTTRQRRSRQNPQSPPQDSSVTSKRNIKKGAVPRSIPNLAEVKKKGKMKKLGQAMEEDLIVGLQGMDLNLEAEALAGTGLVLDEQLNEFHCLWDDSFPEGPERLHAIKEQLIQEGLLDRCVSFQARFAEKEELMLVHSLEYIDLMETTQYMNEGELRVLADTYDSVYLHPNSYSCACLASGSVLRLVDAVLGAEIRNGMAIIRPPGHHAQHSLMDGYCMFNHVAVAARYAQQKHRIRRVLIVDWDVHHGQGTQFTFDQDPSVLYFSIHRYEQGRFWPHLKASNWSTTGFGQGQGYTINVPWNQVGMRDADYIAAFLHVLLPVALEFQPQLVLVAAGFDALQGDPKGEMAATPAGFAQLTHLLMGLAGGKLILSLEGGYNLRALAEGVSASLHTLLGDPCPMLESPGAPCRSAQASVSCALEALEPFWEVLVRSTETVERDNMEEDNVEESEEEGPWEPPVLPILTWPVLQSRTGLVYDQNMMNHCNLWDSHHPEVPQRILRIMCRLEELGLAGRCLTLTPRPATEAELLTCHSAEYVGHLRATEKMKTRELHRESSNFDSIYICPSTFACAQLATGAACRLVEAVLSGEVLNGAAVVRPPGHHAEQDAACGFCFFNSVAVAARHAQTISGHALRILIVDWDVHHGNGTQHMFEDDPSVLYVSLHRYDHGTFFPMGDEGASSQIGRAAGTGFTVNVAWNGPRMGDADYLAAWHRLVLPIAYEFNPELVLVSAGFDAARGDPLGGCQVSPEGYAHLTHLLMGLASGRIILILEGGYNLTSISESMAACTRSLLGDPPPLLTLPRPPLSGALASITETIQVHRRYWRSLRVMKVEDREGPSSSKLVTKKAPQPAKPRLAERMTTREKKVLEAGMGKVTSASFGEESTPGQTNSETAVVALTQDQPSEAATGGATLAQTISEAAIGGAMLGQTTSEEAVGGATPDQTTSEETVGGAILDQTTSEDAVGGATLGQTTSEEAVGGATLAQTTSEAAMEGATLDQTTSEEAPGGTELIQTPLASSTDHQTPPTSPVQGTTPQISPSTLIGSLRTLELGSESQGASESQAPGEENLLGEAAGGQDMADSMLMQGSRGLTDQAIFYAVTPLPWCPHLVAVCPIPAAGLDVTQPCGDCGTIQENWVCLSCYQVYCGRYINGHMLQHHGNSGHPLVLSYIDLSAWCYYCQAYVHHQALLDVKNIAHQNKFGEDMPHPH

[2] = molecular target: T2, HDAC4 (Homo sapiens, UniProt P56524); test: In vitro enzymatic assay HDAC4 (Fluor de Lys); assay type: biochemical; details: average of at least 2 independent experiments in duplicates ± SEM
T2 construct: purchased Sigma Aldrich or Reaction Biology Corporation
T2 sequence (P56524 whole entry): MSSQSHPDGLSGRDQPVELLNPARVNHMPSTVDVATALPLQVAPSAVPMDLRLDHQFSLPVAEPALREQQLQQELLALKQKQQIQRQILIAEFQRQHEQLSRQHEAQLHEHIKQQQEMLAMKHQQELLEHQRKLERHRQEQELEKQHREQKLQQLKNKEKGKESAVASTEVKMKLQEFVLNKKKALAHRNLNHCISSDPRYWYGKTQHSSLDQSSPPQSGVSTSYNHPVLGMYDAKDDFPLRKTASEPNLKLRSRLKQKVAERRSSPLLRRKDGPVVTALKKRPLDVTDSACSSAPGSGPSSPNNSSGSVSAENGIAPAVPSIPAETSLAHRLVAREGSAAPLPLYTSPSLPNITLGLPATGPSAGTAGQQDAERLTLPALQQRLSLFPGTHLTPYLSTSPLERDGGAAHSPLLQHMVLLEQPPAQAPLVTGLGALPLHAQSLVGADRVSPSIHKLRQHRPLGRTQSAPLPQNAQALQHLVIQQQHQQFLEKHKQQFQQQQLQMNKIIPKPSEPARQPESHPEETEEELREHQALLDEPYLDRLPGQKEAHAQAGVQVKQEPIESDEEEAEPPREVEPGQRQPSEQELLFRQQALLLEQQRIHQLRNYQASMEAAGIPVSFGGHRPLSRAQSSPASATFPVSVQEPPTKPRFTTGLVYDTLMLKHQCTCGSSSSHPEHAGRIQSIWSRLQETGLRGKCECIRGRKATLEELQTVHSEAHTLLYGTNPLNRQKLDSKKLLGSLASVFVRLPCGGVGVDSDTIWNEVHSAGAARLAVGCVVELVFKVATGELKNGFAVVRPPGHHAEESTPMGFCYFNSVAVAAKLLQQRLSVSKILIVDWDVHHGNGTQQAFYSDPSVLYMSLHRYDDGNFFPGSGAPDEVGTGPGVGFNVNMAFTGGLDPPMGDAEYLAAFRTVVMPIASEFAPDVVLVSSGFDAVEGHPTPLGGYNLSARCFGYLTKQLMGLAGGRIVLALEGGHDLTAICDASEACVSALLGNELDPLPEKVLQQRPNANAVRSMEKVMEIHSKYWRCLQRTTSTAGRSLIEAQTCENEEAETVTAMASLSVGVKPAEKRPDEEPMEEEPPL

NNC(=O)c1ccc(COc2ccccc2Cl)cc1 [AK-14]
IC50 ([1]; average of at least 2 independent experiments in duplicates ± SEM): 12.8 ± 5.4 µM | inhibition at 100 µM ([1]; read-out: HDAC6 % of inhibition at 100 µM): 70.7 ± 6% | IC50 [2]: > 300 µM

Source: PMC4941420, “A Rational Approach for the Identification of Non-Hydroxamate HDAC6-Selective Inhibitors” (Scientific Reports, 2016)
